In the supplement of paper PMC8837787:

System: Saccharomyces cerevisiae ABC16-Green Monster
Test: growth inhibition at single dose (up to 150 µM), below the 70% cut-off for dose-response; higher = more potent
Details: 18 h; 30 °C; YPD
Method in brief: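 Values are percent growth inhibition of drug-sensitive S. cerevisiae ABC16-Green Monster cells. Cells grown overnight in YPD at 30 °C were diluted to log phase (OD600 0.1–0.2), and each library compound was added at a single dose of 150 µM to 200 µl culture per well in 96-well plates, in biological duplicates, beside untreated cultures. OD600 was read at 0 h and after 18 h at 30 °C, and compounds under 70% in both replicates were not taken to dose-response.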

Compound | growth inhibition at single dose
O=C(Nc1ccc(C23CC4CC(CC(c5ccccc5)(C4)C2)C3)cc1)c1cccs1 | < 70%
CCCCCCn1c(=N)n(CC(O)COc2cccc(C)c2)c2ccccc21 (stereo unspecified) | < 70%
CCSc1nccc(-c2ccc3c(c2)CCC(C)(C)O3)n1 | < 70%
Cc1ccccc1-n1c(SCC(=O)NC2CCCCC2)nc(O)cc1=O | < 70%
O=S(=O)(NC1CCN(c2nn3cc(-c4ccccc4)nc3s2)CC1)c1cccs1 | < 70%
Cc1ccc2oc(-c3cc(NC(=O)Cc4ccccc4)ccc3Cl)nc2c1 | < 70%
CCOc1cc(Br)c(C(C)NC(=O)c2cccc(OC)c2)cc1OCC (stereo unspecified) | < 70%
O=C(C1CCCCC1)N1CC(=O)N2CCc3ccccc3C2C1 (stereo unspecified) | < 70%
CC(C)Cn1c(N)c(C(=O)CSc2nnc(COc3ccccc3Cl)o2)c(=O)n(C)c1=O | < 70%
COc1cccc(Nc2nc(-c3ccc(CCC(C)NC(C)=O)cc3)cs2)c1 (stereo unspecified) | < 70%
CCCS(=O)(=O)N1CCC(CO)(Cc2ccccc2C(F)(F)F)CC1 | < 70%
COc1ccc(CN2CCN(Cc3ccccc3)CC2)c(O)c1 | < 70%
Oc1c(C(Nc2ccccn2)c2cccc(Oc3ccccc3)c2)ccc2cccnc12 (stereo unspecified) | < 70%
c1ccc(Cn2c(N=Nc3c(Nc4ccccc4)ccc4ccccc34)nc3ccccc32)cc1 | < 70%
CNc1snc(C)c1C(=O)N(C)Cc1ccc(C(C)C)cc1 | < 70%
CN(Cc1ccccc1)S(=O)(=O)c1ccc(Cl)c(C(=O)Nc2nnc(C(F)(F)F)[nH]2)c1 | < 70%
Cc1ccc(C(=O)Nc2ccc(S(=O)(=O)O)c3cc(S(=O)(=O)O)cc(S(=O)(=O)O)c23)cc1NC(=O)c1cccc(NC(=O)Nc2cccc(C(=O)Nc3cc(C(=O)Nc4ccc(S(=O)(=O)O)c5cc(S(=O)(=O)O)cc(S(=O)(=O)O)c45)ccc3C)c2)c1 | < 70%
COc1cc(CNC(=O)Nc2nc3ccccc3s2)cc(OC)c1OC | < 70%
Cc1cccc(-c2nc(Nc3ccncn3)c3sccc3n2)n1 | < 70%
COc1ccc(O)c(C(=O)c2cnc3cc4c(cc3c2)OCCO4)c1 | < 70%
CN1CCN(c2ccc(NC(=O)c3csc4c3CCCC4)cc2)CC1 | < 70%
Clc1ccc(CN2CCN(C3=NCCN3)CC2)cc1Cl | < 70%
NC(=O)c1cc(-c2ccsc2)ccc1OCCOc1ccccc1 | < 70%

Compound | growth inhibition at single dose
CCCCN(CCCC)S(=O)(=O)c1ccc(NC(=O)c2ccco2)cc1 | < 70%
CCc1cc(C(=O)Nc2ncccc2O)sc1C | < 70%
CC1=C(C(=O)Nc2ccccc2)C(c2ccco2)C(C#N)=C(SCc2ccccc2Cl)N1 (stereo unspecified) | < 70%
CCNC(=O)c1nn(CC2CC2)c2c1CN(C(=O)c1cc(-c3ccccc3F)n[nH]1)CC2 | < 70%
COc1cc(OC)cc(N2C(=O)N(Cc3ccc(C(C)(C)C)cc3)c3ccccc3S2(=O)=O)c1 | < 70%
CCOc1ccc2cc(-c3nn(C(C)(C)C)c(N)c3C(N)=O)cnc2c1 | < 70%
O=C(NCCCc1nc2ccccc2[nH]1)c1[nH]nc2ccccc12 | < 70%
O=c1nc(/C=C/c2ccc(Cl)cc2)oc2ccccc12 | < 70%
O=C(Nc1ccc(I)cc1)C1CCN(C(=O)c2ccncc2)CC1 | < 70%
COCC(C)n1c(C)cc(C(=O)CSc2ccc(NC(C)=O)cc2)c1C (stereo unspecified) | < 70%
COc1ccc(C2=NCCN2)cc1-c1cn(-c2cccc(C3=NCCN3)c2)nn1 | < 70%
COc1ccccc1-c1noc(-c2cc3c(s2)CCCCC3)n1 | < 70%
Cc1nc(NCCNc2cnccn2)c2c(-c3cccs3)csc2n1 | < 70%
CC(C)(C)c1ccc(C(=O)NCCOc2ccccc2Cl)cc1 | < 70%
CC(=O)C1C2C(=O)N(C(C)(C)C)C(=O)C2C2C=Cc3ccc4cccnc4c3N21 (stereo unspecified) | < 70%
COc1ccc(C2=C(c3ccc(OC)cc3)C3(c4ccccc4)C(=O)C2(c2ccccc2)C2C(=O)N(c4ccc(C)cc4)C(=O)C23)cc1 (stereo unspecified) | < 70%
CNC(=O)C1Cc2ccccc2N1C(=O)Cc1ccc(F)cc1 (stereo unspecified) | < 70%
Cc1c(CN2CCN(c3ccccn3)CC2)noc1-c1ccc(F)cc1 | < 70%
Cc1cc(N2CCN(C3CCCC3)CC2)n2c(nc3ccccc32)c1C#N | < 70%
CN(C)S(=O)(=O)c1cccc(C(=O)Nc2cnc3ccccc3c2)c1 | < 70%
CNC(=O)C1Cc2c([nH]c3cc(Cl)ccc23)C2(CCN(CCc3ccccc3)CC2)N1 (stereo unspecified) | < 70%
Cc1ccc(CC(=O)NCc2ccc(C#N)cc2)cc1 | < 70%
CCOC(=O)c1c(C)nn(-c2ccc(NC(=O)c3cccs3)cc2)c1C | < 70%

Compound | growth inhibition at single dose
COC(=O)c1cccc2oc(-c3cccc(OC)c3NC(=O)c3cc(-c4ccccc4)on3)nc12 | < 70%
O=C(c1cc2ccccc2o1)N1CCN(Cc2ccc3c(c2)OCO3)CC1 | < 70%
COc1ccc(C(=O)Nc2ccc(Cl)cc2C(=O)Nc2ccncc2)cc1 | < 70%
FC(F)(F)c1ccc(NCCNc2ccc(C(F)(F)F)cn2)nc1 | < 70%
COCCn1c(C)cc(C(=O)CSc2nnc(C)s2)c1C | < 70%
C/N=c1\scc(-c2ccco2)n1/N=C/c1sccc1C | < 70%
COc1cc(Br)cc2cc(C(=O)Nc3cccc(C(F)(F)F)c3)c(=O)oc12 | < 70%
CC(C)(C(=O)Nc1ccc(F)cc1)n1cc(-c2ccccc2F)cn1 | < 70%
CCCOc1ccc(/C=N/NC(=S)Nc2ccccc2[N+](=O)[O-])c(O)c1 | < 70%
Nc1nccnc1C(=O)Nc1ccc(C23CC4CC(CC(C4)C2)C3)cc1 | < 70%
CN1CCN(c2ccc(Cl)cc2NC(=O)c2cccc(Oc3ccccc3)c2)CC1 | < 70%
COc1ccc(S(=O)(=O)N(Cc2ccc(C(=O)NC3CC3)cc2)C2CC2)cc1OC | < 70%
CCOC(=O)N1CCC(N/C=C(\C#N)S(=O)(=O)c2ccc(Cl)cc2)CC1 | < 70%
Cc1nn2c(O)c3c(nc2c1-c1ccc(F)cc1)CCCC3 | < 70%
Cc1ccc(O)c(C(=O)c2c[nH]c(-c3nc4ccccc4[nH]3)c2)c1 | < 70%
CNc1snc(C)c1C(=O)OCc1csc(-c2ccccc2)n1 | < 70%
CC(C)CNC(=O)c1c(N)n(CCc2ccccc2F)c2nc3ccccc3nc12 | < 70%
Cc1ccc2[nH]c3c(NCCN(C)C)ncnc3c2c1 | < 70%
CCN(CC)C(=O)N1CCN(C)CC1 | < 70%
CCn1c2ccccc2c2cc(NC(C)C(=O)N3CCNC3=O)ccc21 (stereo unspecified) | < 70%
OC(c1cn2cc(-c3ccccc3)nc2s1)(C(F)(F)F)C(F)(F)F | < 70%
COCCNC(=O)C1CCN(C(C(=O)c2c[nH]c3ccccc23)c2ccccc2)CC1 (stereo unspecified) | < 70%
CC1CCN(Cc2ccc(NC(=O)c3cc4ccc5cccnc5c4[nH]3)cc2)CC1 | < 70%

Compound | growth inhibition at single dose
Cc1ccc(C(=O)OC(C)C(=O)N2CCCC2)cc1S(=O)(=O)N1CCCCC1 (stereo unspecified) | < 70%
COc1ccc(CCN2CCC(NCc3cccc(N(C)C)c3)CC2)cc1 | < 70%
Nc1ccn(C2O[C@H](CO)[C@@H](O)[C@H]2O)c(=O)n1 (stereo partly specified) | < 70%
Cc1cc(=O)oc2c1ccc1oc(C(=O)c3ccccc3)c(C)c12 | < 70%
COc1ccc(C2=NN(C3CCCCCC3)C(=O)[C@@H]3CC=CC[C@H]23)cc1OCCCCOc1ccc(-c2nn[nH]n2)cc1 | < 70%
CCN(CC)C(=O)N1CCN(C)CC1 [Diethylcarbamazine] | < 70%
CC(Oc1ccc(NC(=O)c2cccs2)cc1)C(=O)c1ccc(Cl)cc1 (stereo unspecified) | < 70%
CCn1nc(C)c(Sc2nccn2C)c1C | < 70%
Cc1ccc2cc(C3NC(=O)c4ccccc4N3)c(Cl)nc2c1 (stereo unspecified) | < 70%
COc1cccc(C(=O)Nc2ccc(-c3nc4ccccc4[nH]3)cc2)c1 | < 70%
Cc1cc(C(=O)COC(=O)c2[nH]nc3ccccc23)c(C)n1Cc1cccs1 | < 70%
COc1ccc2c(c1)C1(Nc3ccccc3-c3nc4ccccc4n31)C(=O)N2 (stereo unspecified) | < 70%
CCC(O)c1ccc(Br)cc1NC(=O)c1cccc(Cl)c1 (stereo unspecified) | < 70%
Cc1cccc2c(=O)n(CC(=O)NCc3ccc(C(=O)N4CCCCC4)cc3)cnc12 | < 70%
O=c1cc(NC2CCN(CCCc3ccccc3)CC2)c2cc(Cl)ccc2o1 | < 70%
O=C(Nc1cnc2ccccc2c1)c1cccc(-n2cnnn2)c1 | < 70%
COc1ccc2c(=O)c(C(=O)N(C)Cc3ccc(F)c(F)c3)c[nH]c2c1 | < 70%
Cc1ccc(C(=O)c2oc3ccc4c(C)cc(=O)oc4c3c2C)cc1 | < 70%
CCCCCn1c(=N)n(CC(O)COc2cccc(C)c2)c2ccccc21 (stereo unspecified) | < 70%
COc1cc(CNCCc2ccc(Cl)cc2)cc(OC)c1O | < 70%
Cc1c(C)n(CCCO)c2ncn3nc(-c4ccccc4O)nc3c12 | < 70%
O=C(Nc1nccs1)c1ccc(N2CCCCCC2)nc1 | < 70%
